Measurements: patent publication US6552062B1, “Indazole derivatives with 5-HT2 receptor activity” (Vernalis Research Limited, priority 1998, dated 2003)
Counter-ions that a name gives are not always drawn.

Assays:
[1] = target: T1, human 5-HT2B receptors (Homo sapiens, UniProt P41595); assay: Binding to 5-HT2B receptor, [3H]-5-HT radioligand, Method (b); details: human 5-HT2B receptors in a CHO cell line, read-out: Method (b) Ki (2B)
T1 construct: expressed in transfected cells; host or cells: CHO cell line
Description: (§1) The binding of compounds of formula I to serotonin receptors was determined in vitro by standard methods. The preparations were investigated in accordance with the assays given hereinafter.
Method (b): For the binding to the 5-HT2B receptor the 5-HT2B receptors were radiolabeled with [^3H]-5-HT. The affinity of the compounds for human 5-HT2B receptors in a CHO cell line was determined according to the procedure of K. Schmuck, C. Ullmer, P. Engels and H. Lubbert, FEBS Lett., 1994, 342, 85-90.

[2] = target: T2, human 5-HT2C (Homo sapiens, UniProt P28335); assay: Binding to 5-HT2C receptor, [3H]-5-HT radioligand, Method (a); design: expressed in transfected cells; host or cells: CHO cell line; details: 5-HT2C receptors in a CHO cell line, read-out: Method (a) Ki (2C)
T2 sequence (P28335 33-458): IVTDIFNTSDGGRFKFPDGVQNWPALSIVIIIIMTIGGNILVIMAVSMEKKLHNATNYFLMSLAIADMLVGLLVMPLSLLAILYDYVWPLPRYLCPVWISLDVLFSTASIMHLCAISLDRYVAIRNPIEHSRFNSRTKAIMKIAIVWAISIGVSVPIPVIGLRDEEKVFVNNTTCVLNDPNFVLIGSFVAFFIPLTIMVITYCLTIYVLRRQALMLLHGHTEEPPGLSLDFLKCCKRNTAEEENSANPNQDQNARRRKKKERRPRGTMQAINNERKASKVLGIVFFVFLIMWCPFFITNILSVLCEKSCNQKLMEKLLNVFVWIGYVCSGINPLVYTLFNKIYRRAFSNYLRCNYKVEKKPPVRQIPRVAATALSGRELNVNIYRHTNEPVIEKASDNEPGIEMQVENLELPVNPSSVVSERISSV
Description: as §1
Method (a): For the binding to the 5-HT2C receptor the 5-HT2C receptors were radiolabeled with [^3H]-5-HT. The affinity of the compounds for 5-HT2C receptors in a CHO cell line was determined according to the procedure of D. Hoyer, G. Engel and H. O. Kalkman, European J Pharmacol., 1985, 118, 13-23.

[3] = target: T2, human 5-HT2C; assay: Functional activity, FLIPR calcium assay, CHO cells expressing human 5-HT2C; format: cell-based; design: expressed in transfected cells; host or cells: CHO cells; details: for EC50: CHO cells, FLIPR, Fluo-3-AM, read-out: h5-HT2C EC50; for Emax: CHO, maximum fluorescent signal relative to 10 μM 5-HT (defined as 100%), read-out: h5-HT2C Relative Efficacy (%)
Description: (§2) The functional activity of compounds of formula (I) was assayed using a Fluorimetric Imaging Plate reader (FLIPR). CHO cells expressing the human 5-HT2C or human 5-HT2A receptors were counted and plated into standard 96 well microtitre plates on the day before testing to give a confluent monolayer. The cells were then dye loaded with the calcium sensitive dye, Fluo-3-AM. Unincorporated dye was removed using an automated cell washer to leave a total volume of 100 μL/well of assay buffer (Hanks balanced salt solution containing 20 mM Hepes and 2.5 mM probenecid). The drug (dissolved in 50 μL of the assay buffer) was added at a rate of 70 μL/sec to each well of the FLIPR 96 well plate during fluorescence measurements. The measurements were taken at 1 sec intervals and the maximum fluorescent signal was measured (approx 10-15 secs after drug addition) and compared with the response produced by 10 μM 5-HT (defined as 100%) to which it was expressed as a percentage response (relative efficacy). Dose response curves were constructed using Graphpad Prism (Graph Software Inc.).

[4] = target: T3, human 5-HT2A receptors (Homo sapiens, UniProt P28223); assay: Functional activity, FLIPR calcium assay, CHO cells expressing human 5-HT2A; format: cell-based; details: for EC50: CHO cells, FLIPR, Fluo-3-AM, read-out: h5-HT2A EC50; for h5-HT2A Relative Efficacy (%): maximum fluorescent signal relative to 10 μM 5-HT (defined as 100%)
T3 construct: expressed in transfected cells; host or cells: CHO cells
Description: as §2

T1 sequence (P41595 whole entry): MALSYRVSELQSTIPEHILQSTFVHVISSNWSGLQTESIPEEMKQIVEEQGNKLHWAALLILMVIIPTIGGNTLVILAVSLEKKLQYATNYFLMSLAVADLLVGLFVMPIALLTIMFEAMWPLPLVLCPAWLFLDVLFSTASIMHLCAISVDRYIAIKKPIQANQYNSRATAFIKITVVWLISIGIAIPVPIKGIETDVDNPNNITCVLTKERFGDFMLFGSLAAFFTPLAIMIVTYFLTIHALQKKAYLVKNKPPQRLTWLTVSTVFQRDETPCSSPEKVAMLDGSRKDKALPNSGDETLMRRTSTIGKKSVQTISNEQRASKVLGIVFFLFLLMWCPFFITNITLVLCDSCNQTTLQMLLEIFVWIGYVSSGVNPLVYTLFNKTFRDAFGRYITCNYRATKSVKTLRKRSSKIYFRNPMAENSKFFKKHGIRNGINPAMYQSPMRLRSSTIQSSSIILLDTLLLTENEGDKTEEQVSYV
T3 sequence (P28223 whole entry): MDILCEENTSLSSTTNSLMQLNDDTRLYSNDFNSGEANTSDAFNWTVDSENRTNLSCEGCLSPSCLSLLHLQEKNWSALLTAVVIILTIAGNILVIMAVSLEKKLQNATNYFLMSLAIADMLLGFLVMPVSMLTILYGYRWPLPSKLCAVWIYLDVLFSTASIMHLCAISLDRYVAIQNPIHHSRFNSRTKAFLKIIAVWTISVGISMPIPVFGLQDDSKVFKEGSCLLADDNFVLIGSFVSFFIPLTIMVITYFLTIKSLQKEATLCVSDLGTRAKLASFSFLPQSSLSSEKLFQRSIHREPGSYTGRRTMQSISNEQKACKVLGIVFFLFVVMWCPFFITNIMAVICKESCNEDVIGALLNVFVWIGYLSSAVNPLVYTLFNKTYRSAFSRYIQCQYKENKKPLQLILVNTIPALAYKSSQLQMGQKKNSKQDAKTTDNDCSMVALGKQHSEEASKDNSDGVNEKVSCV

## COc1ccc2c(C)nn(C[C@H](C)N)c2c1 (as salt: fumarate) [Example 2, (S)-1-(6-Methoxy-3-methylindazol-1-yl)-2-propylamine Fumarate]
other
  melting point: 180 to 181 °C

## Cc1nn(C[C@H](C)N)c2cc(F)c(F)cc12 (as salt: fumarate) [Example 3, (S)-1-(5,6-Difluoro-3-methylindazol-1-yl)-2-propylamine Fumarate]
other
  melting point: 160 to 161 °C

## Cc1nn(C[C@H](C)N)c2cc(Cl)c(F)cc12 (as salt: fumarate) [Example 4, (S)-1-(6-Chloro-5-fluoro-3-methylindazol-1-yl)-2-propylamine Fumarate]
other
  melting point: 158 to 159 °C

## CCc1nn(C[C@H](C)N)c2cc(F)ccc12 (as salt: fumarate) [Example 6, (S)-1-(3-Ethyl-6-fluoroindazol-1-yl)-2-propylamine Fumarate]
other
  melting point: 143 to 145 °C

## CCc1nn(C[C@H](C)N)c2cc(Br)ccc12 (as salt: fumarate) [Example 7, (S)-1-(6-Bromo-3-ethylindazol-1-yl)-2-propylamine Fumarate]
other
  melting point: 148 to 150 °C

## CCc1nn(C[C@H](C)N)c2cc(SC)ccc12 (as salt: fumarate) [Example 8, (S)-1-(3-Ethyl-6-methylthioindazol-1-yl)-2-propylamine Fumarate]
other
  melting point: 147 to 149 °C

## Cc1nn(CC(C)N)c2ccccc12 (racemic) [Example 1, (RS)-1-(3-Methylindazol-1-yl)-2-propylamine Fumarate]
[1]
  Ki: 0.241 µM
[2]
  Ki: 0.431 µM
[3]
  EC50: 0.96 µM
  Emax: 55%

## COc1ccc2c(C)nn(C[C@H](C)N)c2c1 [Example 2, (S)-1-(6-Methoxy-3-methylindazol-1-yl)-2-propylamine Fumarate]
[4]
  EC50: 0.108 µM
  h5-HT2A Relative Efficacy (%): 59%
[1]
  Ki: 0.135 µM
[2]
  Ki: 0.21 µM
[3]
  EC50: 0.044 µM
  Emax: 74%

## Cc1nn(C[C@H](C)N)c2cc(F)c(F)cc12 [Example 3, (S)-1-(5,6-Difluoro-3-methylindazol-1-yl)-2-propylamine Fumarate]
[4]
  EC50: 0.152 µM
  h5-HT2A Relative Efficacy (%): 50%
[1]
  Ki: 0.063 µM
[2]
  Ki: 0.14 µM
[3]
  EC50: 0.084 µM
  Emax: 67%

## Cc1nn(C[C@H](C)N)c2cc(Cl)c(F)cc12 [Example 4, (S)-1-(6-Chloro-5-fluoro-3-methylindazol-1-yl)-2-propylamine Fumarate]
[4]
  EC50: 0.137 µM
  h5-HT2A Relative Efficacy (%): 65%
[1]
  Ki: 0.026 µM
[2]
  Ki: 0.075 µM
[3]
  EC50: 0.048 µM
  Emax: 76%

## CCc1nn(C[C@H](C)N)c2cc(C(F)(F)F)ccc12 [Example 5, (S)-1-(3-Ethyl-6-trifluoromethylindazol-1-yl)-2-propylamine Fumarate]
[3]
  EC50: 0.877 µM
  Emax: 73%

## CCc1nn(C[C@H](C)N)c2cc(F)ccc12 [Example 6, (S)-1-(3-Ethyl-6-fluoroindazol-1-yl)-2-propylamine Fumarate]
[4]
  EC50: 0.288 µM
  h5-HT2A Relative Efficacy (%): 32%
[3]
  EC50: 0.052 µM
  Emax: 47%

## CCc1nn(C[C@H](C)N)c2cc(Br)ccc12 [Example 7, (S)-1-(6-Bromo-3-ethylindazol-1-yl)-2-propylamine Fumarate]
[4]
  EC50: 0.739 µM
  h5-HT2A Relative Efficacy (%): 39%
[3]
  EC50: 0.088 µM
  Emax: 69%

## CCc1nn(C[C@H](C)N)c2cc(SC)ccc12 [Example 8, (S)-1-(3-Ethyl-6-methylthioindazol-1-yl)-2-propylamine Fumarate]
[4]
  EC50: 0.285 µM
  h5-HT2A Relative Efficacy (%): 48%
[1]
  Ki: 0.047 µM
[2]
  Ki: 0.037 µM
[3]
  EC50: 0.008 µM
  Emax: 81%
